Test results reported in PMC3518590 (Journal of inorganic biochemistry, 2012).
Entries after “also recorded” stand apart in the source; their conditions may differ. Like-named read-outs stand apart in the source and are kept apart here.

How the values were obtained:
[1] = system: Yeast ALDH (E.C. 1.2.1.5); test: In vitro inhibition of yeast ALDH; format: biochemical; conditions: for IC50: read-out: ALDH inhibition IC50, 37 °C preincubation; for time to complete inhibition of ALDH: inhibitor at ten-fold the IC50
[2] = system: Yeast ALDH (E.C. 1.2.1.5); test: In vitro reactivation of inhibited yeast ALDH by DTT; format: biochemical; conditions: inhibitor at ten-times IC50, DTT 10 mM
[3] = target: ALDH peptide A286-R307 (AIDWIAAGIFYLNSGQNCTANSR) (Saccharomyces cerevisiae, UniProt P47771); test: LC-MS reactivity with ALDH peptide A286-R307
Chain of UniProt P47771 (P47771 286-307): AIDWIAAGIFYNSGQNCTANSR

oxymyoglobin (MbO2) = oxymyoglobin (MbO2) (Equus caballus, UniProt P68082); test: UV-vis assay of metMb formation from MbO2; format: biochemical
Chain of oxymyoglobin (MbO2) (P68082 whole entry): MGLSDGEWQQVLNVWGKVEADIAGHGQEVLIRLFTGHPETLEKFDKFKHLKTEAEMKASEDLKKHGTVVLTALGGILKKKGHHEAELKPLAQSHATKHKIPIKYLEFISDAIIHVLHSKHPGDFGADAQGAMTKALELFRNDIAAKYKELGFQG

[4] = UV-Vis spectroscopy assay for decomposition in buffer; conditions: no PLE
[5] = buffer, pH 7.4
[6] = system: Yeast ALDH (E.C. 1.2.1.5); conditions: read-out: ALDH inhibition, reported IC50; ref [24], [25]; cited from earlier work
[7] = buffer; cited from earlier work
[8] = Water solubility in buffer; format: physicochemical
[9] = 10 eq. reagent, peptide 10 μM, no PLE, room temperature

Row | Molecule | IC50 ([1]; absence of PLE) [nM] | ALDH enzyme activity restored by DTT ([2]; no PLE) [%] | Product(s) of reaction with ALDH peptide [3, 9] | time to complete inhibition of ALDH [1] [min] | IC50 [6] [nM] | decomposition t1/2 (comparison value) [7] [h] | further results
1 | 4-Nitrosotetrahydro-2H-pyran-4-yl Pivalate [compound 5] | 3300 | 63 | RSSR |  |  |  | IC50 ([1]; presence of PLE (9 U/μmol)): 3500 nM; ALDH enzyme activity restored by DTT ([2]; in the presence of PLE): 43%; Product(s) of reaction with ALDH peptide ([3]; 10 eq. reagent + PLE (9 U/μmol), room temperature): RSSR and sulfinamide; rate constant of MbO2 conversion to metMb (oxymyoglobin (MbO2); MbO2 42 μM, compound 84 μM, PLE 9 U/μmol, PBS pH 7.4, 37 °C): 0.0003 s⁻¹; reaction with MbO2 (absorption spectra) (oxymyoglobin (MbO2); absence of PLE): no change in the absorption spectra; decomposition rate constant k ([4]; 3 % mixture of DMF:PBS (100 mM, pH 7.4), 37 °C): 6e-06 s⁻¹; decomposition t1/2 [5]: 32 h
2 | [Na+].[Na+].[O-][N+]([O-])=NO [AS, Angeli’s salt (NaN2O3, AS)] | 2100 | 46 | sulfinamide-minor; also recorded: dhA -major | ≤ 10 | 1800 |  | Product(s) of reaction with ALDH peptide ([3]; 1000 eq. reagent): sulfinamide
3 | O=Nc1ccccc1 [NB, Nitrosobenzene] | 200 | 15 | N-phenyl sulfinamide | ≤ 10 | 2500 |  | 
4 | CC(=O)OC1(N=O)CCCCC1 [compound 1] |  |  |  |  |  | 14.8 | 
5 | CC(C)(C)C(=O)OC1(N=O)CCCCC1 [compound 2] |  |  |  |  |  | 37.8 | 
6 | CC(=O)OC1(N=O)CCOCC1 [compound 4, 4-Nitrosotetrahydro-2H-pyran-4-yl Acetate] |  |  |  |  |  |  | solubility [8]: 1700 µM; decomposition rate constant k ([4]; buffered conditions, PBS 100 mM pH 7.4, 37 °C): 3e-05 s⁻¹
